In one test the target is γ-secretase (Homo sapiens, UniProt P49768+Q92542). As to the kind of experiment: cell-based luciferase reporter assay for γ-secretase inhibition (T100 cells). The arrangement: endogenous in cells; host or cells: T-REx HeLa cells (T100) stably transfected with the substrate C99-Gal4-VP16 and a luciferase reporter. The conditions noted are these: 24 h, read-out: IC50 for inhibiting the activity of γ-secretase in T100 cells. Here is the method: To identify natural product-based bioactive inhibitors of γ-secretase, we screened 417 natural products by using a cell-based luciferase reporter assay for γ-secretase inhibition (T100, see Methods), which we recently developed in TREx HeLa cells according to the methodology described in ref. [17]. […] Thus, this assay is sufficiently sensitive to detect the inhibitory effects of 100 nM DAPT on cellular γ-secretase activity. Additionally, this new cell-based assay tolerated up to 2% DMSO, which is a great advantage when screening inhibitors in a high-throughput format.
T-REx-HeLa cells (T100) stably overexpressing C99-Gal4-VP16 and luciferase were generated according to the method described in refs [17],[30]. For details, see Supplementary Information.
Cell-based γ-secretase assays were performed using the T100 cell line according to the methods detailed in ref. [30] (for details, see Supplementary information). […]
concentrations of substrate at 37 °C for 4 h, after which the enzymatic reactions were stopped by adding 0.5% SDS (final concentration). The samples were analyzed by Western Blot for AICD-Flag or Aβ. […]

For test [1], the system named is γ-secretase subunits (mNCT, PS1-NTF). Put plainly: Western blot of γ-secretase subunits in HEK293 or fibroblast cells. It counts as cell-based. Here is the method: for 10 min before adding 25 µl of the stop solution. The fluorescence was monitored with a microplate reader (emission at 590 nm after excitation at 560 nm).
Western blot and antibodies
WT HEK293 or fibroblast cells were collected and lysed in 1% Nonidet P-40-HEPES buffer, and equal amounts of proteins [normalized by BCA (Pierce)] were separated by SDS-PAGE onto a 12% Tris-glycine gel, transferred onto a PVDF membrane (Bio-Rad, USA) and further probed with antibody CT15 (for APP/APP-CTFs, 1:2000, […]
(1:1000; Abcam, Cambridge, MA, USA) for PS1-NTF, UD-1 (for Pen-2, 1:500; a gift of Dr. Helena Karlström, Karolinska Institute, Sweden), NCT164 (for NCT, 1:1000; BD Bioscience, Bedford, MA, USA) as well as with an antibody for β-actin (1:2000, Abmart). For the analysis of Notch NICD, cell extracts were separated by SDS-PAGE onto a 10% Tris-glycine gel, transferred onto a PVDF membrane and blotted for NICD with an anti-Notch Ab1744 antibody (for the free N-terminus of NICD, 1:500, Cell Signaling Technology, Beverly, MA, USA).
Samples from in vitro γ-secretase activity assays were run on 16% Tricine-SDS-PAGE gels and transferred onto PVDF to detect Aβ and AICD-Flag with 6E10 (1:1000, Covance, Berkeley, CA, USA) and CT15 antibodies (1:5000, Sigma-Aldrich), […]
In general terms: A western blot detects proteins with antibodies after separation by electrophoresis.

pIC50: −log10 of the molar value. Values joined by “and” are separate entries in the source; they are usually repeats but may differ in a detail not shown here. Identical values can stand only once. Counter-ions that a name gives are not always drawn.

For the compound `CC(C)[C@@]1(NC(=O)[C@@H]2C[C@@H]3c4cccc5[nH]cc(c45)C[C@H]3N(C)C2)O[C@@]2(O)[C@@H]3CCCN3C(=O)[C@H](Cc3ccccc3)N2C1=O` [DHEC, Dihydroergocristine methanesulfonate salt], the pIC50 (commonly the IC50 on a negative log10 scale, so that one unit is a factor of ten) on γ-secretase is 4.70 and ~4.60. Moreover, the “assembly and maturation of the protease complex (mNCT, PS1-NTF)” value in test [1] is listed as “not altered”.

The values above are taken from publication PMC4644980, “The FDA-approved natural product dihydroergocristine reduces the production of the Alzheimer’s disease amyloid-β peptides” (Scientific Reports, 2015).
